Data published in patent US20150018271A1, “HSP60 DERIVED PEPTIDES AND PEPTIDE ANALOGS FOR SUPPRESSION AND TREATMENT OF NON-AUTOIMMUNE DIABETES” (Yeda Research and Development Co. Ltd., priority 2012, published 2015).
Ends that are not written are not given here.

Tests used:
[1] = test system: male C57BL/N mice on high fat (60%) diet; conditions: any of the DiaPep277 treatments (100-500 μg in intralipid SC or 100 μg in PBS IP), about 16 weeks, FIG. 1
From the text: Mice genetically prone to T2D (dp/dp or ob/ob strains, resistant to leptin), and/or healthy C57BL/6 mice induced to develop T2D by a high fat diet are used in vivo to assess the activity of hsp60 peptides and analogs in protecting against or treatment of T2D. […] In the fat diet model, the diet (for example TD.0811 of Harlan™, or D12492 of Research Diets Inc. containing 21% and 34.9% fat respectively) is initiated after weaning and the mice express T2D by 10 weeks of age.
In a typical trial, groups of T2D mice (10 mice per group) are treated early in the course of the disease (about 7-10 weeks of age). […]
Treatment with DiaPep277 or other hsp60 peptides or analogs, is performed once or several times a week with doses of 100-500 micrograms injected subcutaneously (with adjuvant such as intralipid) or IP, IM or IV (without adjuvant). Glucose tolerance, fasting glucose and fasting insulin levels are measured 1-2 months after onset of treatment.
In one specific in-vivo trial, 70 male C57BL/N mice were weighed, measured for blood glucose levels and divided into seven groups, 10 mice/group as following: […]
Animals of groups 2-7 were fed with 60% fat diet of from age of 5 weeks until termination of the trial. […] After about 16 weeks the trial was terminated and Hemoglobin A1C and C-peptide levels were measured using methods known in the art.

NOD mice = conditions: cited from earlier work

Substance | animal appetite and weight [1] | gamma interferon secretion (NOD mice; after treatment) | p277-specific IL-4 and IL-10 secretion (NOD mice; after treatment) | p277-specific IgG1 antibodies (NOD mice; after treatment) | T-cell reactivity to beta cell antigens (NOD mice; subcutaneous administration) | development of diabetes (NOD mice; subcutaneous administration)
VLGGGVALLRVIPALDSLTPANED [DiaPep277] | did not change | – | – | – | – | –
p277: specific peptide of human hsp60, one of the immunodominant epitopes in autoimmune diabetes; native cysteines at positions 6 and 11 (VLGGGCALLRCIPALDSLTPANED; p277 peptide; UniProt P10809 437-460, looked up, fragment) | – | decrease | increase | induced | down-regulated | prevented the development of diabetes
